Calls of active or inactive are those of the source.
Tests used:
[1] = molecular target: Peroxisome proliferator-activated receptor gamma/Nuclear receptor coactivator 1 (Homo sapiens, UniProt P37231); type: functional;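 also: agonist potency as compounds enhance coactivator SRC-1 recruitment to PPARgamma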
[2] = mitochondrial function rescue without frataxin homolog – Friedreich's ataxia, plus single-dose screen, dose response (AID 1465); type: functional;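 also: yeast depleted of Yfh1p frataxin homolog grown on glycerol needing respiration; WST-1 tetrazolium dye reduction as measure of cellular dehydrogenase metabolic activity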
[3] = molecular target: Peroxisome proliferator-activated receptor gamma/Nuclear receptor coactivator 2 (Homo sapiens, UniProt P37231); type: functional;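 also: agonist potency for raising coactivator recruitment to the receptor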
Mucolipin-3 = molecular target: T1, Mucolipin-3 (Homo sapiens, UniProt Q8TDD5); assay: Fluorescence counterscreen assay for […] agonists: dose response cell-based high-throughput screening assay to identify agonists of the transient receptor potential channel ML3 (TRPML3). [Related pubchem assays: 1424, 1448 ]; type: functional
T1 sequence (Q8TDD5 whole entry): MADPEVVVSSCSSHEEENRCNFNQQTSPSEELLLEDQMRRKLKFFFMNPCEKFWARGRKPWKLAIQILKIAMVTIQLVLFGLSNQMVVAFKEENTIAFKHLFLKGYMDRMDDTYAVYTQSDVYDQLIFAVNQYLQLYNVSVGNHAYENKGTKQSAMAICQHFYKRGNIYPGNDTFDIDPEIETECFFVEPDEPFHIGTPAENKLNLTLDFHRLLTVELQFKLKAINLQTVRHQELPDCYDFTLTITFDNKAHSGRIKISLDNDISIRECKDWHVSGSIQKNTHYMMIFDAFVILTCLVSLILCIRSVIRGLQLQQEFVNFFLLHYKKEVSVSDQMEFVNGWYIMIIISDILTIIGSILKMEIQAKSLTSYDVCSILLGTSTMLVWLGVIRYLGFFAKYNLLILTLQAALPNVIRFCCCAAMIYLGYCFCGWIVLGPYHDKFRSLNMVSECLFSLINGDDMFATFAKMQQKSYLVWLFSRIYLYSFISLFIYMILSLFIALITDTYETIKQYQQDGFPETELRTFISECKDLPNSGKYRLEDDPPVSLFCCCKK

[4] = molecular target: T2, Calpain-2 catalytic subunit (Sus scrofa, UniProt P43367); assay: m-calpain protease blockers, concentration series – biochemical, fluorogenic peptide substrate, dose response (AID 1420); type: functional
T2 sequence (P43367 whole entry): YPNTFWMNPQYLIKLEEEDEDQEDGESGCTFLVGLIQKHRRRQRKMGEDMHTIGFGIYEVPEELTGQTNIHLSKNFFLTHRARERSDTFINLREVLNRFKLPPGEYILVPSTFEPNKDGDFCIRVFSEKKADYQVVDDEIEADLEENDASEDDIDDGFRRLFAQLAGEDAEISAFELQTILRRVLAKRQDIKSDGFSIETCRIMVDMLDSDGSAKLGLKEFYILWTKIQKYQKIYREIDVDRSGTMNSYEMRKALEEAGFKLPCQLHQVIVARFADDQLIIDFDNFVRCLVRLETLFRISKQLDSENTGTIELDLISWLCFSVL

Leucine aminopeptidase = molecular target: T3, Leucine aminopeptidase (Plasmodium falciparum 3D7, UniProt Q8IL11); assay: P. falciparum M17LAP inhibitors, primary screen, biochemical, fluorogenic H-Leu-NHMec substrate, 1536-well (AID 1619); type: functional
T3 sequence (Q8IL11 whole entry): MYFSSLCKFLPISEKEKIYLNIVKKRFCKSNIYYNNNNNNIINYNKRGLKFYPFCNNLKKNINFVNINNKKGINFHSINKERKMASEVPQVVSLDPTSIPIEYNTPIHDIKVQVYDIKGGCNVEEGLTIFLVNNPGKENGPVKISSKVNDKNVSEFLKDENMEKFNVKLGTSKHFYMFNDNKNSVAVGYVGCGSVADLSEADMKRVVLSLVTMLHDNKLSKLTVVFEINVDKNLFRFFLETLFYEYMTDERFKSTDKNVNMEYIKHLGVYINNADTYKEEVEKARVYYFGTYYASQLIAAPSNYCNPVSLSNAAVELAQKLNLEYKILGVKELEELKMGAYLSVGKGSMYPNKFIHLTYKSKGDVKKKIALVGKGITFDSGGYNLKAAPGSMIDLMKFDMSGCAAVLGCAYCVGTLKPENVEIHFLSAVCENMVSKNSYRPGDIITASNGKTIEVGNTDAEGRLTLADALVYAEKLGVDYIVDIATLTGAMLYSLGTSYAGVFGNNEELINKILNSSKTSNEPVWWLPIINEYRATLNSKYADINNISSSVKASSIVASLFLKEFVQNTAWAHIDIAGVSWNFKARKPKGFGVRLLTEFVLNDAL

Ion channel NompC = Ion channel NompC (Danio rerio, UniProt Q7T1G6); assay: Dose response cell-based high-throughput screening assay for agonists of the transient receptor potential channel N1 (TRPN1). [Related pubchem assays (depositor defined):AID1424, AID1448]; type: functional
[5] = molecular target: Peroxisome proliferator-activated receptor gamma/Nuclear receptor coactivator 3 (Homo sapiens, UniProt P37231); type: functional;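 also: agonist potency for raising coactivator recruitment to the receptor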
[6] = general cell-killing toxicity readout – plate reader, dry powder samples, cytotoxicity control for PAX8 inhibitor project, dose response (AID 743021); type: functional, cell-based
Paired box protein Pax-8 = Paired box protein Pax-8 (Homo sapiens, UniProt Q06710); assay: PAX8 transcriptional activity inhibition in RMG-I – RMG-I cells, luciferase, cherry-pick, dose response (AID 687027); type: functional, cell-based;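 also: luciferase reporter driven by Pax8 target thyroperoxidase promoter measured by SteadyGlo luminescence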
[7] = molecular target: T4, Replicative DNA helicase DnaB (Mycobacterium tuberculosis, UniProt P9WMR3); assay: DnaB intein splicing inhibitors, dose response, biochemical, cell-free fluorescence (AID 449749); type: functional
T4 sequence (P9WMR3 whole entry): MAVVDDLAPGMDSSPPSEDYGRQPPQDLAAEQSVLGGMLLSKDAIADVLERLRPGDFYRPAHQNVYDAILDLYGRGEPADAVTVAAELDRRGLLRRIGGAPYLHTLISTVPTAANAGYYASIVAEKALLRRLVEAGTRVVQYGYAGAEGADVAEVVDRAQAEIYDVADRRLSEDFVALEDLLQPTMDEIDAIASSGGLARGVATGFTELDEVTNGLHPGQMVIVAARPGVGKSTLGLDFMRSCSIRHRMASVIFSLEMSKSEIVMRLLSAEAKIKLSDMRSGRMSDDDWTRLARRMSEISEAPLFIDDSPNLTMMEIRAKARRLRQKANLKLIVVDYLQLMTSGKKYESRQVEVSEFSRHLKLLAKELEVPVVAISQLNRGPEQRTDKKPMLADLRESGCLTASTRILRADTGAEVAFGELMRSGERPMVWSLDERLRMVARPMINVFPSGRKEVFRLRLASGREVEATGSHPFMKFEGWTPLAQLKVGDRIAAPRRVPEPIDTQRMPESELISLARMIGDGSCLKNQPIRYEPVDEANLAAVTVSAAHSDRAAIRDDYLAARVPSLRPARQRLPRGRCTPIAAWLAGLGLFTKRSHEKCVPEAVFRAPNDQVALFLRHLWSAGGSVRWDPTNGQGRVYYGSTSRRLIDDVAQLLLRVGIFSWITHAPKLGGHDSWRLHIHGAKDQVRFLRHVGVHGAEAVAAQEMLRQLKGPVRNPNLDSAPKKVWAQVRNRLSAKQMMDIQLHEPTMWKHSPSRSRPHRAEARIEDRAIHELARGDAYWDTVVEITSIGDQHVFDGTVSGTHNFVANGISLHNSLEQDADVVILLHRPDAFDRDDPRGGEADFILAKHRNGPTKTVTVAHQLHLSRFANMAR

[8] = molecular target: T5, Voltage-gated N-type calcium channel alpha-1B subunit/Amyloid beta A4 precursor protein-binding family A member 1 (Homo sapiens, UniProt Q00975+Q02410); type: protein assay
[9] = CMV-driven luciferase expression suppression in HEK293 – cell-based, luminescence, dry powder, counter-screen for Pax8 inhibitor project, dose response (AID 743020); type: functional
Protein RecA = molecular target: T6, Protein RecA (Mycobacterium tuberculosis, UniProt P9WHJ3); assay: Fluorescence Cell-Free Homogeneous Dose Retest to Identify Inhibitors of RecA-Intein Splicing Activity. [Related pubchem assays (depositor defined):AID2097, AID2223, AID489010, AID492950]; type: functional
T6 sequence (P9WHJ3 whole entry): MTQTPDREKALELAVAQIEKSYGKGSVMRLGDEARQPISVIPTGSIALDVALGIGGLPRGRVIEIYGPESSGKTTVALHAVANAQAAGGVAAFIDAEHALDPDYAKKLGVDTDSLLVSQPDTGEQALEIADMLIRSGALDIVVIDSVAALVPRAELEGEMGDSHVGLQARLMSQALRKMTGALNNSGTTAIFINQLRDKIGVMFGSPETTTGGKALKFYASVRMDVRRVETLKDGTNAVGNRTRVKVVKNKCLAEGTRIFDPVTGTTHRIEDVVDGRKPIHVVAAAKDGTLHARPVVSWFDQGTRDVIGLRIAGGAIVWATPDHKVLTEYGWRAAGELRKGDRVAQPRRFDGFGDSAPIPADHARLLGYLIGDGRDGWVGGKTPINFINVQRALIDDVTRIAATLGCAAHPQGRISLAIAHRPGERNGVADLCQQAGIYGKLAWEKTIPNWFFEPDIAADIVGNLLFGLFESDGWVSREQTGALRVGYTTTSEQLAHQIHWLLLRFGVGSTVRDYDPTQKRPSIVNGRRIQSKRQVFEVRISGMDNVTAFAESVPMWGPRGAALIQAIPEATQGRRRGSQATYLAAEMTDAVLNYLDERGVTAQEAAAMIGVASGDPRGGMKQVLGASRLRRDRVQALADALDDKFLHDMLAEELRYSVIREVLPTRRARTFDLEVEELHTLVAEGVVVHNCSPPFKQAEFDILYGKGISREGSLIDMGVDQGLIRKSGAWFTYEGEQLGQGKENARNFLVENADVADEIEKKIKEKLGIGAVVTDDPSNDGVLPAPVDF

[10] = molecular target: T5, Voltage-gated N-type calcium channel alpha-1B subunit/Amyloid beta A4 precursor protein-binding family A member 1; type: protein assay; remark: listed apart in the source
Hexokinase-1 = molecular target: T7, Hexokinase-1 (Homo sapiens, UniProt P19367); assay: HK1 enzyme activation by HKDC1 hits – biochemical, selectivity assay for HKDC1 activator project, dose response (AID 504762); type: functional
T7 sequence (P19367 whole entry): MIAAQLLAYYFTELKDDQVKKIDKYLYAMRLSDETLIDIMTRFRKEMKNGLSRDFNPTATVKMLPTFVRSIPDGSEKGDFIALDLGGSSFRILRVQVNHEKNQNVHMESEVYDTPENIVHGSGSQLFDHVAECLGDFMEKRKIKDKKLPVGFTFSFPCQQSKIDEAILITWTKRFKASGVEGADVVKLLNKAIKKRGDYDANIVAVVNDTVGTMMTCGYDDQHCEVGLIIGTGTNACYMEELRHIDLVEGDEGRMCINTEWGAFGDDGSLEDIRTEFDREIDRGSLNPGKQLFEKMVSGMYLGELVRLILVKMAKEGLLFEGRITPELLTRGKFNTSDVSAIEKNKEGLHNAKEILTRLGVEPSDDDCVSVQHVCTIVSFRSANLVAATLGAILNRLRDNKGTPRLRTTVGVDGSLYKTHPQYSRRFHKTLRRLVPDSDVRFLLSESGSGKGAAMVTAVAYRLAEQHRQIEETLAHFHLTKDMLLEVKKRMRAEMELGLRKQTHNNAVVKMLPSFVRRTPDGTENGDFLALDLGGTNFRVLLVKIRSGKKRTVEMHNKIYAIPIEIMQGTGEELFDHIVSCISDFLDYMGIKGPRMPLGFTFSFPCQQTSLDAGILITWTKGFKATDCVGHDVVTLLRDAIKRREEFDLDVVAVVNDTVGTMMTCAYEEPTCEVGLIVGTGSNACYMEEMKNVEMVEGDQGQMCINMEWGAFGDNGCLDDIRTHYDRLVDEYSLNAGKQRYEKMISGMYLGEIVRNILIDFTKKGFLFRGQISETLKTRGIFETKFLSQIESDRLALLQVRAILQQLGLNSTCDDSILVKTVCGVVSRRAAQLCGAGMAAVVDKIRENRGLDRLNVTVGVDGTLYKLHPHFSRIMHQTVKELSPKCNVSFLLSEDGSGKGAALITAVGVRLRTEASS

Hexokinase HKDC1 = molecular target: T8, Hexokinase HKDC1 (Homo sapiens, UniProt Q2TB90); assay: activation of HKDC1 glucose phosphorylation – biochemical, W721R variant, dose response (AID 504730); type: functional
T8 sequence (Q2TB90 whole entry): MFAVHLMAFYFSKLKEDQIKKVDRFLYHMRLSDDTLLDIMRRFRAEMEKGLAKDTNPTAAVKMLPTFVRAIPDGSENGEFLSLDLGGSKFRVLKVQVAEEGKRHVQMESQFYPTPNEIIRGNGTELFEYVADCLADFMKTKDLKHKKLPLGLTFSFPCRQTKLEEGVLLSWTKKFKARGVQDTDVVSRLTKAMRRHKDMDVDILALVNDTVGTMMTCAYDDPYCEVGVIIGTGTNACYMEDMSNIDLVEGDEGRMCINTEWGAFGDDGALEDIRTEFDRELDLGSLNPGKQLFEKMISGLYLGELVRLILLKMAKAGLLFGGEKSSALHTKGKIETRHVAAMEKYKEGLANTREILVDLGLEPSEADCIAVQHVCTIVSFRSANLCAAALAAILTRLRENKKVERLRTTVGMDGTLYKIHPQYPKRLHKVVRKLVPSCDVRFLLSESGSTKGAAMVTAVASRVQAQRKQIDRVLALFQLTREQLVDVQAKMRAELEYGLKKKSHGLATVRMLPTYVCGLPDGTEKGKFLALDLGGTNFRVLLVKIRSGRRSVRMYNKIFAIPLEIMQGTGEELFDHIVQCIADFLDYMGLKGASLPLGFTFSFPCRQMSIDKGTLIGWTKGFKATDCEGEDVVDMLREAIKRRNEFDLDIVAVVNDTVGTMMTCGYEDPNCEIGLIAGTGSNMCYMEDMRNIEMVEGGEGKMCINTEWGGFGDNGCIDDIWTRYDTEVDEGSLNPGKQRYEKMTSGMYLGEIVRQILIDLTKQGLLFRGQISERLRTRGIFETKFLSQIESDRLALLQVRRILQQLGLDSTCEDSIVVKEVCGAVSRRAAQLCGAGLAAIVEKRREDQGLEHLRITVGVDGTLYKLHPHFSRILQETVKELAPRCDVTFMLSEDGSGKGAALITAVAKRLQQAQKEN

T5 sequence (Q00975 whole entry): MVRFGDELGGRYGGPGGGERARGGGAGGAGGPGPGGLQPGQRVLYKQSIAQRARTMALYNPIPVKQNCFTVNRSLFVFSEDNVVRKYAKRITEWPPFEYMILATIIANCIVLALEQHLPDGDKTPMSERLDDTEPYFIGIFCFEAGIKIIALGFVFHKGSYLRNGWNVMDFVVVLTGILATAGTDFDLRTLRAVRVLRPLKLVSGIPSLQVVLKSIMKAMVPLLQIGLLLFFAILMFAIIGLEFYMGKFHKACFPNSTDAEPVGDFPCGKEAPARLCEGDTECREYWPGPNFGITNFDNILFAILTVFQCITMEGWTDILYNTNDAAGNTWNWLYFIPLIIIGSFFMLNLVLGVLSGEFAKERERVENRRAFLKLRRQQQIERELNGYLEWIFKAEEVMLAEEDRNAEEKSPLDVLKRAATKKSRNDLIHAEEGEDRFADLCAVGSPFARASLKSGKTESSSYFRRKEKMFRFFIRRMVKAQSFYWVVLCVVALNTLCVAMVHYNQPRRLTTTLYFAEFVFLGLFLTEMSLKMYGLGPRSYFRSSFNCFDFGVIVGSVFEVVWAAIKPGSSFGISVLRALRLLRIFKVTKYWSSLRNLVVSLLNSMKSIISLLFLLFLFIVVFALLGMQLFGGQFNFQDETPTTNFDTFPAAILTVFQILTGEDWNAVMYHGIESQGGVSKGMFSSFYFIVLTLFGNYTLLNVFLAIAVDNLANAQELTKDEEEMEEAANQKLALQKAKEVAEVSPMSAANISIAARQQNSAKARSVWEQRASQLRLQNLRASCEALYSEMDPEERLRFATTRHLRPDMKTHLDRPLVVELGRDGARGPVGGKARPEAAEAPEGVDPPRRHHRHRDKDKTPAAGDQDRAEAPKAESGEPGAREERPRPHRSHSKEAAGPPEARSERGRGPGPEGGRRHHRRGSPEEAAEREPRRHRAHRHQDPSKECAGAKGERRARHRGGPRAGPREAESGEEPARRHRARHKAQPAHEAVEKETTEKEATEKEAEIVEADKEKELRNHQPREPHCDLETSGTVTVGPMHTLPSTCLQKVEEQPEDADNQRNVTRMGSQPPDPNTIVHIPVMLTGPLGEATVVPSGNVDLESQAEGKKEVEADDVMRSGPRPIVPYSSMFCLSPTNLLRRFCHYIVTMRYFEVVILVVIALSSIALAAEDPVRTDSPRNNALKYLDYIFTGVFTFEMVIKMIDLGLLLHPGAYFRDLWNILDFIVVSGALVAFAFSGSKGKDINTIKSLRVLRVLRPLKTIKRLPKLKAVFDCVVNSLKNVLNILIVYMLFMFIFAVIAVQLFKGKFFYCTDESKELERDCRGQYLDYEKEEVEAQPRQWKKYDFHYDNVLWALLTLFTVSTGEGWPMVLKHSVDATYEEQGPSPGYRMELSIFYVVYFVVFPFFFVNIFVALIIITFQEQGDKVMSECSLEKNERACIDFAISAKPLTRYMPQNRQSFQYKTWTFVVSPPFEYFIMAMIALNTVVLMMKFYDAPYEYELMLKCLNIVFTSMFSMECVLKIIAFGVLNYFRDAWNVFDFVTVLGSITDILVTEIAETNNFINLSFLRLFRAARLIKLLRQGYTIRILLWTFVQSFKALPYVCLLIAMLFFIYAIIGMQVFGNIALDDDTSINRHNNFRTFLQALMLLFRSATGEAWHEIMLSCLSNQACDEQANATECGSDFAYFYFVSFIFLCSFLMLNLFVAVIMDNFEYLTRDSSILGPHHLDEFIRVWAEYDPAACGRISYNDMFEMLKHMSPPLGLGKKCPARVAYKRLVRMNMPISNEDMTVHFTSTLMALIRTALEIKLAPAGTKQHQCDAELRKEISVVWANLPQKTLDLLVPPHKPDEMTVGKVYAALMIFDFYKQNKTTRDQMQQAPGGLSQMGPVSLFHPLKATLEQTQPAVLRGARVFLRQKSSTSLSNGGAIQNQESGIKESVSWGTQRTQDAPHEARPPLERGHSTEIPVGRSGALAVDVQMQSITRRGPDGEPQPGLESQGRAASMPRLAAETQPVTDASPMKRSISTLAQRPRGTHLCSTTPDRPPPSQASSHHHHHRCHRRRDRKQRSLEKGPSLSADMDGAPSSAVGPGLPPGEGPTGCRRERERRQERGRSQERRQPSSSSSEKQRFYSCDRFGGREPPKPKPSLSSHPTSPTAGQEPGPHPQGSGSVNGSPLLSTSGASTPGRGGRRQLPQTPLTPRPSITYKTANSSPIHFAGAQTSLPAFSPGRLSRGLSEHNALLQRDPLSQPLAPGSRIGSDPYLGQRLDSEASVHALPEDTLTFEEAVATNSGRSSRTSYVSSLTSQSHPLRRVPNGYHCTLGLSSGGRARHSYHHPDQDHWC
T5 sequence (Q02410 whole entry): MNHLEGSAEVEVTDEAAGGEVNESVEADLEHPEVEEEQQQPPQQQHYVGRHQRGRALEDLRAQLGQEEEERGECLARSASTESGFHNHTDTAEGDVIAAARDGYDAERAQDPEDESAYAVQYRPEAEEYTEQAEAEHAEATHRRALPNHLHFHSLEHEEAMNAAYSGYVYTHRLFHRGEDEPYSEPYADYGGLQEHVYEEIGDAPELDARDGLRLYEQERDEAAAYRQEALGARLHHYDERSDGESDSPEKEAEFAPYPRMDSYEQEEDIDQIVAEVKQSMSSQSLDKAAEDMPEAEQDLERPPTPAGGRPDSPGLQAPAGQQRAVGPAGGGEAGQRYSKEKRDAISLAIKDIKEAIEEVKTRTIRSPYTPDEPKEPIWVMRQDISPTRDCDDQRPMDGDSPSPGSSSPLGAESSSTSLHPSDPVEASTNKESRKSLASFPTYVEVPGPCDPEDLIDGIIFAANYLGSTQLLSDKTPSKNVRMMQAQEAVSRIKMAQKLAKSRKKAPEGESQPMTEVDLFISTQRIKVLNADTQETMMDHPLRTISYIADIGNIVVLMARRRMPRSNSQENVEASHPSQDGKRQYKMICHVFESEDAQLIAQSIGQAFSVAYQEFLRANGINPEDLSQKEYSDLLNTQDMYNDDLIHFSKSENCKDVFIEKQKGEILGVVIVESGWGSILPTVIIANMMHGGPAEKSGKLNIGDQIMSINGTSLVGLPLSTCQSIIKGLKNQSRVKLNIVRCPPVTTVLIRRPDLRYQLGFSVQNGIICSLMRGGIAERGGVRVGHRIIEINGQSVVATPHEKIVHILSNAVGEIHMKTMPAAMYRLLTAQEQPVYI
Sequence of Ion channel NompC (Q7T1G6 whole entry): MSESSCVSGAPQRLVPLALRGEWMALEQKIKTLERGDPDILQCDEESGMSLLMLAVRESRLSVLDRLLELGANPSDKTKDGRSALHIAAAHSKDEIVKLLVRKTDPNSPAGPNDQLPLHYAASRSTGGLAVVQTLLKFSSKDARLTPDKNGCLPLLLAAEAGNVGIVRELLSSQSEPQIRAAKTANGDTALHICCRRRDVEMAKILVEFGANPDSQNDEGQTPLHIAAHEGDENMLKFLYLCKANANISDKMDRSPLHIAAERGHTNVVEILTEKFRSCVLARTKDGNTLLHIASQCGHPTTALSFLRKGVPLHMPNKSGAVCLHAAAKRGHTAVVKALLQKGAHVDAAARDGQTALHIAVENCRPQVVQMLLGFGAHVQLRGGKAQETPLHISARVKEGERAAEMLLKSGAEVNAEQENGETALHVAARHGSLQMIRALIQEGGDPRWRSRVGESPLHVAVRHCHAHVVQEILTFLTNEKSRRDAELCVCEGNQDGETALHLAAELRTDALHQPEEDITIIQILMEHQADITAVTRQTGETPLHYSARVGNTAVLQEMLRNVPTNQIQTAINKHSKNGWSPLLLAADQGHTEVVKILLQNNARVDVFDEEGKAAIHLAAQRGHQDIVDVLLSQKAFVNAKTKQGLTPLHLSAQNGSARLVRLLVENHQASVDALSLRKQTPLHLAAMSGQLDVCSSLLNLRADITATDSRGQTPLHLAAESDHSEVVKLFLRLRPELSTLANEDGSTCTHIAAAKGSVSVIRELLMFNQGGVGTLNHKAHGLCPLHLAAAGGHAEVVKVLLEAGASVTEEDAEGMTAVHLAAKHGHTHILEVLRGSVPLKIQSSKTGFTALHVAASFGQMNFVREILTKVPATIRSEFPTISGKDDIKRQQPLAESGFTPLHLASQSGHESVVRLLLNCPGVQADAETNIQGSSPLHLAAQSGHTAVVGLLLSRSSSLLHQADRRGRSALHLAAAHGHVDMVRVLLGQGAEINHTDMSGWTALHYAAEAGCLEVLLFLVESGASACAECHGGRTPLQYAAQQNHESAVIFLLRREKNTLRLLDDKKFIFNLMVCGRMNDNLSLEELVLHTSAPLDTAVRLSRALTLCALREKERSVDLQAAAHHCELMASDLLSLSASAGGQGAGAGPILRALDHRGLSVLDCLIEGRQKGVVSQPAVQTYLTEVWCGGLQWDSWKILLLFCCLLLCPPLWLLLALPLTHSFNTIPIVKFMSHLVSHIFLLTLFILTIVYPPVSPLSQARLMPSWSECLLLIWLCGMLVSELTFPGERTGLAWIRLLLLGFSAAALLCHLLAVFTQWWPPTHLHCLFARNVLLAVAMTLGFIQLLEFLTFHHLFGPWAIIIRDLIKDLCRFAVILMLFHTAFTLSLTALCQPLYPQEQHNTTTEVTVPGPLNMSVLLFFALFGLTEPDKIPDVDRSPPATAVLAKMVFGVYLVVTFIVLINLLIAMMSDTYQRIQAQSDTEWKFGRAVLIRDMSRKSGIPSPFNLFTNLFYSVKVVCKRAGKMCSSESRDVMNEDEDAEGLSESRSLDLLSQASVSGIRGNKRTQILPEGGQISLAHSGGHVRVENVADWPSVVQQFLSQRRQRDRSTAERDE

## CN1CCS/C1=C\C=C1/SC(=S)N(CC(=O)O)C1=O
[1]
  EC50: 89.8 µM (not active)
[2]
  EC50: > 100 µM (active)
[3]
  EC50: 62.2 µM (not active)
Mucolipin-3
  EC50: 7.93 µM (active)
[4]
  IC50: 7.69 µM (not active)
Leucine aminopeptidase
  IC50: 52.3 µM (active)
Ion channel NompC
  EC50: 5.26 µM (active)
[5]
  EC50: > 79.4 µM (not active)

## N#Cc1nccnc1S(=O)(=O)c1cccs1
[6]
  AC50: 13.5 µM (active)
Paired box protein Pax-8
  AC50: 4.59 µM (active)
[7]
  AC50: 8.49 µM (active)
[8]
  IC50: 22.7 µM (active)
[9]
  AC50: 23 µM (active)
Protein RecA
  EC50: 6.36 µM (active)
[10]
  IC50: 1.13 µM (active)

## Cc1ccc(/N=C2\C(=S)N(c3ccc(C)cc3)C(=N)N2/N=C/c2ccc(Cl)cc2)cc1
Hexokinase-1
  EC50: > 80 µM (inactive)
Hexokinase HKDC1
  EC50: > 80 µM (inactive)

From ChEMBL document CHEMBL1201862, “PubChem BioAssay data set” (2004)
